Our source for the IC50 values is patent publication US11136329B2, “JAK inhibitors” (Vimalan Biosciences, Inc., priority 2019, dated 2021).

pIC50: −log10 of the molar value.

Type in all cases: biochemical
One assay has as its target JAK1 (Homo sapiens (Human), UniProt P23458). The assay can be described thus: JAK/TYK2 assay (Kinase Glo luminescence), JAK1. The note with it: 7.5 nM enzyme, 2 uM ATP, 30 uM IRS-1, 1 hr. On the procedure:
(§1) 10 mM test compound stock or 1 mM control compound stock (tofocitinib, ruxolitinib or staurosporine) in DMSO was diluted to 0.4 mM in DMSO. A 3-fold series dilution was then performed in DMSO to generate 10 different compound concentrations. The assay was carried out in 384-well white plate. 0.5 uL of 40× compound DMSO solution at different concentrations was mixed with 10 uL 2× enzyme prepared in reaction buffer (20 mM HEPES, 10 mM MgCl2, 0.01% Tween, 1 mM DTT, pH 7.5). 10 uL 2× substrate mixture prepared in reaction buffer was then added to start the reaction. A short spin was done to settle down all solutions to the bottom of the plate. Final concentrations of test compound in the reaction mixture were 10000, 3333, 1111, 370, 123, 41.2, 13.7, 4.57, 1.52and 0.51 nM. Concentrations of control compound were ten times less. Enzymatic reaction was conducted at 25° C. for 1-2 hours. 10 uL of Kinase Glo Reagents was added to stop the reaction and generate the luminescent signal which was measured using Envision. Luminescence signal was inversely related to kinase activity. […] The mixture without any compound was the positive control.
(In general: Kinase-Glo measures the ATP left after a reaction by luminescence.)

In the next assay the target is JAK2 (Homo sapiens (Human), UniProt O60674). Briefly: JAK/TYK2 assay (Kinase Glo luminescence), JAK2. The conditions noted are these: 0.8 nM enzyme, 2 uM ATP, 4 uM pEY, 1 hr. Here is the method: as §1
JAK2, sequence (O60674 whole entry, species assumed): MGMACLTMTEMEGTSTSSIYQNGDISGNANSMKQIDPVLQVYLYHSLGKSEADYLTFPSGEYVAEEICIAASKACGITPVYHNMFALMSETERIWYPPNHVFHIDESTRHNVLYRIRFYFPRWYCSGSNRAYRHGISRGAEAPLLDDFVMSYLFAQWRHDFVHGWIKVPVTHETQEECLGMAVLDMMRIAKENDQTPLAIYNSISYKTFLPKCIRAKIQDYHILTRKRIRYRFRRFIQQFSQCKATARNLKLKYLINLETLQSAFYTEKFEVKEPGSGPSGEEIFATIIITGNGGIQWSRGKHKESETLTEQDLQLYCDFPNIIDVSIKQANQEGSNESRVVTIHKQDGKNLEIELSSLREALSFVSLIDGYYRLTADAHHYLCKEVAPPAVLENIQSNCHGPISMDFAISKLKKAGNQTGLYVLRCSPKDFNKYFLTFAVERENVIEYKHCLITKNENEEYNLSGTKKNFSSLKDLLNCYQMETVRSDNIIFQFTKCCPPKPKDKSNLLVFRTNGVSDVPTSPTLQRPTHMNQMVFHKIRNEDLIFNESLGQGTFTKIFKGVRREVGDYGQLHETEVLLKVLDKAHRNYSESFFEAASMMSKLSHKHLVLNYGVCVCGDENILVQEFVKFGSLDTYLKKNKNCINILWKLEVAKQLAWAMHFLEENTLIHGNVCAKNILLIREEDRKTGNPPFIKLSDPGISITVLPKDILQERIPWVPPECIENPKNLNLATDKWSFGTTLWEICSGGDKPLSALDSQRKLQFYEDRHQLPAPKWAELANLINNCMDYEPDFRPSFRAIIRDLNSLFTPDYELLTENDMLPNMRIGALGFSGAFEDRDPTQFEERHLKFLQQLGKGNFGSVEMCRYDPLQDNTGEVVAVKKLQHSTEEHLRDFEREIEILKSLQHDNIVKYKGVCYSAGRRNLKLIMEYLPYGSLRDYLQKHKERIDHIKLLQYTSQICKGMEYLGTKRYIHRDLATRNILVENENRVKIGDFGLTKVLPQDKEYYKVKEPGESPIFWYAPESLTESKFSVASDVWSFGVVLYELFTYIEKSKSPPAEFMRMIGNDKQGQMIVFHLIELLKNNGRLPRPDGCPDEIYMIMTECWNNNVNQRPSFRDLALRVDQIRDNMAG
Another assay has as its target JAK3 (Homo sapiens (Human), UniProt P52333). The assay can be described thus: JAK/TYK2 assay (Kinase Glo luminescence), JAK3. The note with it: 1.5 nM enzyme, 2 uM ATP, 4 uM pEY, 1 hr. Here is the method: as §1
The next assay has as its target TYK2 (Homo sapiens (Human), UniProt P29597). Briefly: JAK/TYK2 assay (Kinase Glo luminescence), TYK2. The note with it: 9 nM enzyme, 2 uM ATP, 30 uM IRS-1, 1 hr. Here is the method:
as §1

TYK2, sequence (P29597 whole entry, species assumed): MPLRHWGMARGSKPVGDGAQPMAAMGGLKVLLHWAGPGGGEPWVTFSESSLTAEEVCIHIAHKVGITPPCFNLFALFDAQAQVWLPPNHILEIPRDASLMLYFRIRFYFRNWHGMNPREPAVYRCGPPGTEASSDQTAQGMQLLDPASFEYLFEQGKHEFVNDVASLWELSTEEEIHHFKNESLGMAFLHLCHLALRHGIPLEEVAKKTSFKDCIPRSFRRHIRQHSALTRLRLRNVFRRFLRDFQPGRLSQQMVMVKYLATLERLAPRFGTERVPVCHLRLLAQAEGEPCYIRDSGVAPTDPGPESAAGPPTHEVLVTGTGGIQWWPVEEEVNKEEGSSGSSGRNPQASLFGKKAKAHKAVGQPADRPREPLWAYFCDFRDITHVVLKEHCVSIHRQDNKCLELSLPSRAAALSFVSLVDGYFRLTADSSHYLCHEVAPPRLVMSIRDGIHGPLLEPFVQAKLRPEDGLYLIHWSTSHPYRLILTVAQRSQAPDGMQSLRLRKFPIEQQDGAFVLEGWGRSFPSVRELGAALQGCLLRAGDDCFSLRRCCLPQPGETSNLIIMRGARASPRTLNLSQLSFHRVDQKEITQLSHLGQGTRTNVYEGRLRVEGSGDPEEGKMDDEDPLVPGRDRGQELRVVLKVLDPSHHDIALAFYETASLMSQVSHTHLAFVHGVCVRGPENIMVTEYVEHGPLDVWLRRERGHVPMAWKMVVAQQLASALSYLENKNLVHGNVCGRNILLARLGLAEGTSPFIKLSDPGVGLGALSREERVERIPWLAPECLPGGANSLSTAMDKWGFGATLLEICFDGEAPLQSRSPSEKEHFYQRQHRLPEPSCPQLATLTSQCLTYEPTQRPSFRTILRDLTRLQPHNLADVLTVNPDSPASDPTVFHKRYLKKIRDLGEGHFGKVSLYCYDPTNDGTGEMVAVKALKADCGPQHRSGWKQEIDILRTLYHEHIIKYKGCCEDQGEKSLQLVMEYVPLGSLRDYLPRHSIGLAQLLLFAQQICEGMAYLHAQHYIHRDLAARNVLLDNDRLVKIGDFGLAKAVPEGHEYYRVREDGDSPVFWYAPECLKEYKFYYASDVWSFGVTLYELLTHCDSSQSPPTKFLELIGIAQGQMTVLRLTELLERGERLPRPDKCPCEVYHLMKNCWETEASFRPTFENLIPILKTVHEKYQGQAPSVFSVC
JAK3, sequence (P52333 whole entry, species assumed): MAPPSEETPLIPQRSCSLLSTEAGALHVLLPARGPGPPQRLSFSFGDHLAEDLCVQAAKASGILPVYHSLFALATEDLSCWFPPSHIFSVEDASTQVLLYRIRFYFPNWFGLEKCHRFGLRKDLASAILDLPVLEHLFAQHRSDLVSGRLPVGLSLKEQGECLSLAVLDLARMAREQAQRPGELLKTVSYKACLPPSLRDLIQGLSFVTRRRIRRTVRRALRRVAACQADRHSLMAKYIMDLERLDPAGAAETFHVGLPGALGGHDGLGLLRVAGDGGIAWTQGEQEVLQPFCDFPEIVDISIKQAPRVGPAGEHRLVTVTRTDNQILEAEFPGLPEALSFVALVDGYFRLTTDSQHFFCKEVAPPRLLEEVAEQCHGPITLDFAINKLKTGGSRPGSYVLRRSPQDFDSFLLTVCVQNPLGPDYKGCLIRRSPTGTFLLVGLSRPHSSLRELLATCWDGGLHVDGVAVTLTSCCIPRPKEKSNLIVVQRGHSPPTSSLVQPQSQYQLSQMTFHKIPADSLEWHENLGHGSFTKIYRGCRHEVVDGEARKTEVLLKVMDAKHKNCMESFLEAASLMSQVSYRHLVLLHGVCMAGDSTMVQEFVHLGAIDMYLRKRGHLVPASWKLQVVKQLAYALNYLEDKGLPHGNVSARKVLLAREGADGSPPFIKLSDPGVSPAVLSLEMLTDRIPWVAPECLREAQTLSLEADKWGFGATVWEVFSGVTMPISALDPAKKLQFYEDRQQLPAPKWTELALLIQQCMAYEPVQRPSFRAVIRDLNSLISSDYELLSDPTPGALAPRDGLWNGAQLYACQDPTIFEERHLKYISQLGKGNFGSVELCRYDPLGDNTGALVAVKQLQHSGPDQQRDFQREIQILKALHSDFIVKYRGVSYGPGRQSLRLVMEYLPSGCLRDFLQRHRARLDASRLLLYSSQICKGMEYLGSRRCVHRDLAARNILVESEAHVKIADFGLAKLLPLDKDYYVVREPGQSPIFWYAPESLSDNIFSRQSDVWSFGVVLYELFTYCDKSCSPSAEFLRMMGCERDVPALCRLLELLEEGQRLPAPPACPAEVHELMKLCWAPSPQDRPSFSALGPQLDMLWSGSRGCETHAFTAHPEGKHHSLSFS
JAK1, sequence (P23458 whole entry, species assumed): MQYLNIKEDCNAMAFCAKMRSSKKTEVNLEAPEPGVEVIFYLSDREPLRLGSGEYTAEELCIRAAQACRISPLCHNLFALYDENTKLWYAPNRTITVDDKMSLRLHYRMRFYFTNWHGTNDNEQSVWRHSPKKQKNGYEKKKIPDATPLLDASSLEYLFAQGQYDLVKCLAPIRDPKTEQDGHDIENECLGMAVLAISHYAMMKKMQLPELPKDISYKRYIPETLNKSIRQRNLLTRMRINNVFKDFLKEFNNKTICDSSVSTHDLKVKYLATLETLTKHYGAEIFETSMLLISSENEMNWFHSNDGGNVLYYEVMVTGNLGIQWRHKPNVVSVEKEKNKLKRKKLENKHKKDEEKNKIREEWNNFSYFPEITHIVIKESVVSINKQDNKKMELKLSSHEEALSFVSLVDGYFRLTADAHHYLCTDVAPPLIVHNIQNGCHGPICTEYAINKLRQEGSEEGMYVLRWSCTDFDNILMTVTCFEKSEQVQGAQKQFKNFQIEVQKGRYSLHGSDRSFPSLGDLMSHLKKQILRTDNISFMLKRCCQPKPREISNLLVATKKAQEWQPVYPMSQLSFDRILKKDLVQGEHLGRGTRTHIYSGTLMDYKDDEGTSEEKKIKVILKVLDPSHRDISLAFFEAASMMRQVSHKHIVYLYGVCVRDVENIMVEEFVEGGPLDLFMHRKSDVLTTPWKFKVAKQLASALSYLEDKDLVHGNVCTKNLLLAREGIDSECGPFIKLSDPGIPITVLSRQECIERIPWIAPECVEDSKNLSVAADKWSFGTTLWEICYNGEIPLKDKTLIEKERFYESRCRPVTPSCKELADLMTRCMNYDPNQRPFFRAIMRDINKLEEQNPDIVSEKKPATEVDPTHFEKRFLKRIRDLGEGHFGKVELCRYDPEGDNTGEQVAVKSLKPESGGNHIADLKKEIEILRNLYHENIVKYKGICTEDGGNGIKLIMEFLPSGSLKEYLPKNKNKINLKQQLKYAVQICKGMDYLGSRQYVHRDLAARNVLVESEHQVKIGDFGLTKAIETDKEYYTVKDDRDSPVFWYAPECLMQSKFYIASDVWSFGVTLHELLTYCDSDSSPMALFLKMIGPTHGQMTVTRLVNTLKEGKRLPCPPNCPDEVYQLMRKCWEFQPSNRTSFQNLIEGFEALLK

The term pIC50 denotes the negative decadic logarithm of the IC50, by convention in mol/L. In the case of `O=C(O)CCn1cc(Nc2ncc3ccn(Cc4ccsc4)c3n2)cn1` [Compound 19, 3-(4-((7-(thiophen-3-ylmethyl)-7H-pyrrolo[2,3-d]pyrimidin-2-yl)amino)-1H-pyrazol-1-yl)propanoic acid], the negative-log IC50 (pIC50) against JAK1, against JAK2, on JAK3 and at TYK2 was greater than 7.00 each time.
As to `O=C(O)Cn1cc(Nc2ncc3ccn(CC4CCCCC4)c3n2)cn1` [Compound 15, 2-(4-((7-(cyclohexylmethyl)-7H-pyrrolo[2,3-d]pyrimidin-2-yl)amino)-1H-pyrazol-1-yl)acetic acid], the negative logarithm of the IC50 (pIC50) at JAK1, against JAK2, at JAK3 and on TYK2 was greater than 7.00 in each case.
Turning to `CCOC(=O)Cn1cc(Nc2ncc3ccn(CC(CC)CC#N)c3n2)cn1` (stereo not drawn) [Compound 70, ethyl 2-(4-((7-(2-(cyanomethyl)butyl)-7H-pyrrolo[2,3-d]pyrimidin-2-yl)amino)-1H-pyrazol-1-yl)acetate], the pIC50 against JAK1, at JAK2, on JAK3 and against TYK2 was greater than 7.00 each time.
As to `CCOC(=O)Cn1cc(Nc2ncc3ccn(Cc4csc(C)n4)c3n2)cn1` [Compound 55, ethyl 2-(4-((7-((2-methylthiazol-4-yl)methyl)-7H-pyrrolo[2,3-d]pyrimidin-2-yl)amino)-1H-pyrazol-1-yl)acetate], the negative logarithm of the IC50 (pIC50) against JAK1 was 6.00 to 7.00; on JAK2 it was greater than 7.00; against JAK3, greater than 7.00; at TYK2, 6.00 to 7.00.
As to `CC(C)C(Cn1ccc2cnc(Nc3cnn(CC(=O)O)c3)nc21)C(C)C` [Compound 87, 2-(4-((7-(2-isopropyl-3-methylbutyl)-7H-pyrrolo[2,3-d]pyrimidin-2-yl)amino)-1H-pyrazol-1-yl)acetic acid], the pIC50 on JAK1, against JAK2, against JAK3 and against TYK2 was greater than 7.00 each time.
Regarding `CCC(Cn1ccc2cnc(Nc3cnn(CC(=O)OC(C)C(C)O)c3)nc21)C(C)C` (stereo not drawn) [Compound 109, 3-hydroxybutan-2-yl 2-(4-((7-(2-ethyl-3-methylbutyl)-7H-pyrrolo[2,3-d]pyrimidin-2-yl)amino)-1H-pyrazol-1-yl)acetate], the pIC50 at JAK1, on JAK2, on JAK3 and against TYK2 was greater than 7.00 in each case.
In the case of `CC[C@H](Cn1ccc2cnc(Nc3cnn(CC(=O)O[C@@H]4CCN(C)C4)c3)nc21)C(C)C` [Compound 139, (R)-1-methylpyrrolidin-3-yl 2-(4-((7-((S)-2-ethyl-3-methylbutyl)-7H-pyrrolo[2,3-d]pyrimidin-2-yl)amino)-1H-pyrazol-1-yl)acetate], the pIC50 against JAK1, at JAK2, against JAK3 and against TYK2 was greater than 7.00 throughout.
On to `CC[C@H](Cn1ccc2cnc(Nc3cnn(CC(=O)OCC4COC4)c3)nc21)C(C)C` [Compound 141, oxetan-3-ylmethyl (S)-2-(4-((7-(2-ethyl-3-methylbutyl)-7H-pyrrolo[2,3-d]pyrimidin-2-yl)amino)-1H-pyrazol-1-yl)acetate], for which the pIC50 at JAK1, at JAK2, against JAK3 and against TYK2 was greater than 7.00 throughout.
Turning to `CC[C@H](Cn1ccc2cnc(Nc3cnn([C@@H]4CCOC4=O)c3)nc21)C(C)C` [Compound 82A, (R)-3-(4-((7-((S)-2-ethyl-3-methylbutyl)-7H-pyrrolo[2,3-d]pyrimidin-2-yl)amino)-1H-pyrazol-1-yl)dihydrofuran-2(3H)-one], the negative logarithm of the IC50 (pIC50) against JAK1, on JAK2, against JAK3 and against TYK2 was greater than 7.00 throughout.
Turning to `CCOC(=O)Cn1cc(Nc2ncc3ccn(CCC(C)C)c3n2)cn1` [Compound 21, ethyl 2-(4-((7-isopentyl-7H-pyrrolo[2,3-d]pyrimidin-2-yl)amino)-1H-pyrazol-1-yl)acetate], the negative-log IC50 (pIC50) against JAK1, against JAK2, against JAK3 and against TYK2 was greater than 7.00 each time.
With `CCOC(=O)CCn1cc(Nc2ncc3ccn(Cc4ccsc4)c3n2)cn1` [Compound 16, ethyl 3-(4-((7-(thiophen-3-ylmethyl)-7H-pyrrolo[2,3-d]pyrimidin-2-yl)amino)-1H-pyrazol-1-yl)propanoate], the pIC50 at JAK1 was 6.00 to 7.00; at JAK2, greater than 7.00; against JAK3, greater than 7.00; on TYK2, greater than 7.00.
Turning to `CCC(Cn1ccc2cnc(Nc3cnn(CC(=O)OC(C)C)c3)nc21)C(C)C` (stereo not drawn) [Compound 83, isopropyl 2-(4-((7-(2-ethyl-3-methylbutyl)-7H-pyrrolo[2,3-d]pyrimidin-2-yl)amino)-1H-pyrazol-1-yl)acetate], the pIC50 against JAK1, on JAK2, at JAK3 and against TYK2 was greater than 7.00 each time.
In the case of `CC(C)OC(=O)Cn1cc(Nc2ncc3ccn(C[C@@H](CCF)C(C)C)c3n2)cn1` [Compound 99, isopropyl (S)-2-(4-((7-(4-fluoro-2-isopropylbutyl)-7H-pyrrolo[2,3-d]pyrimidin-2-yl)amino)-1H-pyrazol-1-yl)acetate], the pIC50 at JAK1, against JAK2, against JAK3 and against TYK2 was greater than 7.00 in each case.
For the compound `CCC(CC)Cn1ccc2cnc(Nc3cnn(C4CCOC4=O)c3)nc21` (stereo not drawn) [Compound 142, 3-(4-((7-(2-ethylbutyl)-7H-pyrrolo[2,3-d]pyrimidin-2-yl)amino)-1H-pyrazol-1-yl)dihydrofuran-2(3H)-one], the pIC50 on JAK1, against JAK2, on JAK3 and against TYK2 was greater than 7.00 throughout.
Turning to `CCC[C@H](Cn1ccc2cnc(Nc3cnn(CC(=O)OC(C)C)c3)nc21)C(C)C` [Compound 100, isopropyl (S)-2-(4-((7-(2-isopropylpentyl)-7H-pyrrolo[2,3-d]pyrimidin-2-yl)amino)-1H-pyrazol-1-yl)acetate], the pIC50 against JAK1, at JAK2, on JAK3 and against TYK2 was greater than 7.00 each time.
Regarding `C=CC[C@H](Cn1ccc2cnc(Nc3cnn(CC(=O)OC(C)C)c3)nc21)C(C)C` [Compound 102, isopropyl (S)-2-(4-((7-(2-isopropylpent-4-en-1-yl)-7H-pyrrolo[2,3-d]pyrimidin-2-yl)amino)-1H-pyrazol-1-yl)acetate], the pIC50 at JAK1, on JAK2, on JAK3 and at TYK2 was greater than 7.00 throughout.
For `CCC(CC)Cn1ccc2cnc(Nc3cnn(CC(=O)OCCC#N)c3)nc21` [Compound 89, 2-cyanoethyl 2-(4-((7-(2-ethylbutyl)-7H-pyrrolo[2,3-d]pyrimidin-2-yl)amino)-1H-pyrazol-1-yl)acetate], the negative logarithm of the IC50 (pIC50) against JAK1, against JAK2, against JAK3 and against TYK2 was greater than 7.00 throughout.
Take `CCOC(=O)Cn1cc(Nc2ncc3ccn(C[C@H]4CC[C@H](O)CC4)c3n2)cn1` [Compound 51, ethyl 2-(4-((7-(((1r,4r)-4-hydroxycyclohexyl)methyl)-7H-pyrrolo[2,3-d]pyrimidin-2-yl)amino)-1H-pyrazol-1-yl)acetate]: the negative logarithm of the IC50 (pIC50) against JAK1, against JAK2, against JAK3 and against TYK2 was greater than 7.00 each time.
